In patent US12478574B2, “Oral care compositions” (Colgate-Palmolive Company, priority 2016, dated 2025):

Assay: Atomic Absorption analysis of top and bottom layers for Zn2+
Type: physicochemical
Details: overall 1% ZnCl2 (4800 ppm)
Method: Results are similar with Zn^2+ as the cation. […] The concentration of Zn^2+ in the top layer was measured as 1400 ppm Zn^2+ while the bottom was 8800 ppm, i.e., 6.3 fold higher concentration vs. the top.

- Zn2+ concentration, bottom vs. the top: 6.3 fold
- concentration of Zn2+ in the bottom layer: 8800 ppm
- concentration of Zn2+ in the top layer: 1400 ppm
SMILES: [Cl-].[Cl-].[Zn+2] [ZnCl2]
